The source of these data is patent US10604487B2, “Pyridinol derivative or pharmaceutically acceptable salt thereof, and pharmaceutical composition containing same as active ingredient” (Research Cooperation Foundation of Yeungnam University, priority 2016, dated 2020).

Where two headings read alike, the source gives them in different places. A value given as a limit tells only on which side of the number the result lay.

A short description of data set [1]: Cytotoxicity test (MTT), U937. It counts as cell-based. Conditions: human, U937, 48 h; for viability at 48 h, 0.01 µM / viability at 48 h, 0.1 µM / viability at 48 h, 1 µM / viability at 48 h, 10 µM / viability at 48 h, 100 µM: U937 cells (monocytic blood cancer-derived cell line), read-out: Cell viability (% of control); for IC50 at 48 h: U937 cells. The method in brief:
(§1)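 Cells seeded at 1×10⁵ cells/cm² and exposed to graded compound concentrations for 48 h at 37 °C in RPMI 1640 with 1% FBS. MTT (5 mg/mL) added for 4 h; formazan dissolved in DMSO and absorbance read at 540 nm.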

Data set [2] is described as follows: Cytotoxicity test (MTT), HT-29. It counts as cell-based. The conditions noted are these: human, HT-29, 48 h; for viability at 48 h, 0.01 µM / viability at 48 h, 0.1 µM / viability at 48 h, 1 µM / viability at 48 h, 10 µM / viability at 48 h, 100 µM: HT-29 cells (colorectal cancer cell line), read-out: Cell viability (% of control); for IC50 at 48 h: HT-29 cells, read-out: IC50 (μM), cytotoxicity. Summed up:
as §1

In data set [3] the test system is TNBS-induced colitis. Put plainly: In vivo efficacy of oral administration in TNBS-induced inflammatory bowel disease model. Further details: species or system Sprague Dawley rats. Conditions: rat; for Body weight recovery rate (%) / Bowel weight recovery rate (%): oral, 5 days. Here is the method:
7 to 8-week-old Sprague Dawley rats were purchased from Orient Bio Korea, and after stabilization with typical solid feed for 3 days, were used as animals for the experiment. The animals were freely supplied with feed and water during the experiment, and a cage was maintained at a temperature of 25±1° C. and a relative humidity of 50±10%. Lighting was adjusted to a 12-hour light-dark cycle using an automatic lightening system. In regard to experimental groups, there were 5 groups each consisting of 6 rats having an average weight of 180±10 g (a control group, a group administered TNBS only, a group administered TNBS+300 mg/kg of sulfasalazine, a group administered TNBS+10 mg/kg of GLPG, and a group administered TNBS+1 mg/kg of test drug), which were divided according to a randomized block design.
After rats that had been fasting for 24 hours were anesthetized with diethyl ether, a 1 mL syringe connected with a polyethylene catheter was used to slowly inject 0.8 mL of 5% TNBS diluted with 50v/v % ethanol into the lumen of a colon, and then the rats turned upside down and kept upright for 60 seconds to prevent the leakage of 5% TNBS from the anus. In the control group, only a vehicle [50 v/v % ethanol] was injected in the same manner as in the other groups (Thapa et al., 2008).
To examine a drug effect, for 5 days from the day following the TNBS treatment, a drug was administered at a predetermined time every day.
A change in the body weights of the rats was observed using a digital mass meter from the fasting stage to the end of the TNBS administration and drug administration processes.
The colon of each rat was extracted and tissue 5 to 6 cm from the anus was cut into 1-cm pieces, and then the weight of the tissue was measured.

For data set [4], the system named is TNF-α-induced adhesion of monocytes to intestinal epithelial cells. The data set is described as follows: Inhibitory activity against TNF-α-induced adhesion of monocytes (U937) to intestinal epithelial cells (HT-29). It counts as cell-based, human. Conditions: for inhibition at 1 µM / IC50: Homo sapiens; for IC50: TNF-α-induced, read-out: IC50 (adhesion inhibition). Summed up:
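HT-29 monolayers pretreated 1 h with compound in 1% FBS medium, then exposed 3 h at 37 °C to BCECF-loaded U937 cells plus 10 ng/mL TNF-α. Non-adherent cells washed off; bound cells quantified by fluorescence after Triton X-100 lysis.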

Where [5] appears, read: 1 μM test drug, HT-29/U937 adhesion, 10 ng/mL TNF-α, read-out: Inhibitory activity (%).
Setting [6] is: 1 μM test drug, HT-29/U937 adhesion, 10 ng/mL TNF-α.
The mark [7] stands for this setting: 1 μM, Table 8, read-out: 1 μM concentration inhibitory activity.

A word on the viability: it is a read-out of living cells in per cent, often relative to untreated cells. For orientation: IC50 means the concentration that gives 50% inhibition. As for `Cc1nc(NC(=S)NC(=O)c2ccccc2)c(C)c(C)c1O` [Compound 18-13, N-((5-Hydroxy-3,4,6-trimethylpyridin-2-yl)carbamothioyl)benzamide], in data set [1], the viability at 48 h, 0.01 µM turned out to be 99.9 ± 1.3%; the viability at 48 h, 0.1 µM was determined as 96.8 ± 1.8%; the viability at 48 h, 1 µM was determined as 91.7 ± 3.6%; the viability at 48 h, 10 µM amounted to 79 ± 0.8%. In data set [1], the viability at 48 h, 100 µM came to 60.6 ± 0.5% and the 50% inhibitory concentration (IC50) at 48 h was greater than 100 µM. Moreover, in data set [2], the viability at 48 h, 0.01 µM turned out to be 78.8 ± 3.3%; the viability at 48 h, 0.1 µM was 75.4 ± 1.3%; the viability at 48 h, 1 µM stood at 75.4 ± 4.1%; the viability at 48 h, 10 µM is 57.9 ± 5.8%. In data set [2], the viability at 48 h, 100 µM was found to be 36.4 ± 6.1% and the half-inhibitory concentration (IC50) at 48 h stood at 19.1 µM. Also, in data set [3] (1 mg/kg), the “Body weight recovery rate (%)” value is given as 93.8% and the “Bowel weight recovery rate (%)” value was found to be 94.9%. For the same compound, the inhibition at 1 µM in data set [4] (setting [5]) is no less than 50%.
Turning to `Cc1nc(NC(=S)Nc2ccc(Cl)c(Cl)c2)c(C)c(C)c1O` [Compound 18-8, 1-(3,4-dichlorophenyl)-3-(5-hydroxy-3,4,6-trimethylpyridin-2-yl)thiourea], in data set [3] (1 mg/kg), the “Body weight recovery rate (%)” value came to 72.4% and the “Bowel weight recovery rate (%)” value was 84.6%. Moreover, the “Inhibitory activity (%)” value in data set [4] (setting [6]) was determined as 87.2%.
Consider `Cc1nc(NC(=S)NC(C)C)c(C)c(C)c1O` [Compound 18-2, 1-(5-hydroxy-3,4,6-trimethylpyridin-2-yl)-3-isopropylthiourea], for which, in data set [1], the viability at 48 h, 0.01 µM came out at 97 ± 3.5%; the viability at 48 h, 0.1 µM amounted to 99.4 ± 3.9%; the viability at 48 h, 1 µM was determined as 99.1 ± 1.4%; the viability at 48 h, 10 µM is 90.8 ± 2.2%. Moreover, in data set [1], the viability at 48 h, 100 µM turned out to be 63.6 ± 0.8% and the half-maximal inhibitory concentration (IC50) at 48 h is greater than 100 µM. Moreover, in data set [2], the viability at 48 h, 0.01 µM stood at 87.6 ± 4.8%; the viability at 48 h, 0.1 µM amounted to 87.3 ± 2.1%; the viability at 48 h, 1 µM was determined as 88.4 ± 4.2%; the viability at 48 h, 10 µM is 87.6 ± 5.3%. In data set [2], the viability at 48 h, 100 µM was found to be 88.6 ± 1.3% and the IC50 at 48 h is greater than 100 µM. Moreover, in data set [3] (1 mg/kg), the “Body weight recovery rate (%)” value is 72.0% and the “Bowel weight recovery rate (%)” value was 81.6%. Further, the inhibition at 1 µM in data set [4] (setting [5]) is no less than 50%.
`Cc1nc(NC(=S)Nc2cccc(C(F)(F)F)c2)c(C)c(C)c1O` [Compound 18-9, 1-(5-Hydroxy-3,4,6-trimethylpyridin-2-yl)-3-(3-(trifluoromethyl)phenyl)thiourea]: in data set [3] (1 mg/kg), the “Body weight recovery rate (%)” value stood at 74.9% and the “Bowel weight recovery rate (%)” value is given as 87.2%. Further, the “Inhibitory activity (%)” value in data set [4] (setting [6]) was determined as 93.0%.
Turning to `Cc1nc(NS(=O)(=O)c2ccc(C(F)(F)F)cc2)c(C)c(C)c1O` [Compound 22-3, N-(5-hydroxy-3,4,6-trimethylpyridin-2-yl)-4-(trifluoromethyl)benzenesulfonamide], in data set [1], the viability at 48 h, 0.01 µM worked out at 96.9 ± 1.5%; the viability at 48 h, 0.1 µM was 93 ± 1.5%; the viability at 48 h, 1 µM was 87.5 ± 2.2%; the viability at 48 h, 10 µM was determined as 75.5 ± 1.9%. For the same compound, in data set [1], the viability at 48 h, 100 µM is 53.3 ± 1.5% and the IC50 at 48 h is greater than 100 µM. Besides, in data set [2], the viability at 48 h, 0.01 µM was 92.5 ± 1.5%; the viability at 48 h, 0.1 µM amounted to 95 ± 0.9%; the viability at 48 h, 1 µM amounted to 89.3 ± 4.7%; the viability at 48 h, 10 µM was determined as 91.8 ± 1.8%. Further, in data set [2], the viability at 48 h, 100 µM is 72.6 ± 3.2% and the IC50 at 48 h is greater than 100 µM. In data set [3] (1 mg/kg), the “Body weight recovery rate (%)” value is on record as 25.0% and the “Bowel weight recovery rate (%)” value came out at 50.3%. In addition, the inhibition at 1 µM in data set [4] (setting [7]) amounted to 87.3%. In addition, the IC50 in data set [4] (HT-29/U937 adhesion) was 0.32 µM.
`Cc1nc(NC(=O)Nc2ccccc2)c(C)c(C)c1O` [Compound 16-2, 1-(5-hydroxy-3,4,6-trimethylpyridin-2-yl)-3-phenylurea]: in data set [1], the viability at 48 h, 0.01 µM was 89.9 ± 2.6%; the viability at 48 h, 0.1 µM came out at 88.9 ± 1.9%; the viability at 48 h, 1 µM is 87.1 ± 2%; the viability at 48 h, 10 µM was 81.7 ± 2%. In data set [1], the viability at 48 h, 100 µM came to 78 ± 0.6% and the IC50 at 48 h is greater than 100 µM. In data set [2], the viability at 48 h, 0.01 µM is 103 ± 1.9%; the viability at 48 h, 0.1 µM was found to be 103 ± 1.6%; the viability at 48 h, 1 µM stood at 103 ± 3.5%; the viability at 48 h, 10 µM came out at 93.4 ± 7.2%. In data set [2], the viability at 48 h, 100 µM amounted to 65.2 ± 6.6% and the IC50 at 48 h is greater than 100 µM. In addition, in data set [3] (1 mg/kg), the “Body weight recovery rate (%)” value is 69.0% and the “Bowel weight recovery rate (%)” value is on record as 81.6%. The inhibition at 1 µM in data set [4] (setting [7]) is 76.3%. Besides, the half-maximal inhibitory concentration (IC50) in data set [4] (HT-29/U937 adhesion) was 0.41 µM.
For the compound `O=C(O)c1cc(/N=N/c2ccc(S(=O)(=O)Nc3ccccn3)cc2)ccc1O` [Sulfasalazine, reference compound], the “Morphology observation of colon (visual symptoms, adhesion between organs, intestinal hyperemia)” value in data set [3] (300 mg/kg, after 5-day administration) was “considerably inhibited”. Besides, in data set [3] (300 mg/kg), the “Body weight recovery rate (%)” value is 50.5% and the “Bowel weight recovery rate (%)” value came to 69.6%.
